Entries after “also recorded” stand apart in the source; their conditions may differ. Like-named read-outs stand apart in the source and are kept apart here.
Assays:
[1] = test system: salivary glands, kidneys, red marrow; test: Dosimetry estimate for ^225Ac-PSMA-617 extrapolated from ^177Lu-PSMA-617 scans; assay type: in vivo, human; conditions: FIG. 15
Description: The clinical dosimetry basis and dose finding study was performed by using the isotopes ^225Ac and ^177Lu by Kratochwil et al. A dosimetry estimate was calculated on the basis of time-activity curves derived from serially obtained ^177Lu-PSMA-617 scans extrapolated to the physical half-life of ^225Ac, assuming instant decay of unstable daughter nuclides. Salvage therapies empirically conducted with 50 (n=4), 100 (n=4), 150 (n=2), and 200 kBq/kg (n=4) of 225Ac-PSMA-617 were evaluated retrospectively regarding toxicity and treatment response. Eight of 14 patients received further cycles in either 2- or 4-mo intervals with identical or de-escalated activities.
In FIG. 15, the absorbed radiation dose estimates for ^225Ac-PSMA-617 are shown together with I-131-“PSMA” and ^177Lu-PSMA-617 doses. We see that mean dose for salivary glands is approximately 70% higher with ^225Ac-PSMA-617 than with ^177Lu-PSMA-617, and red marrow dose 85% higher, respectively.

[2] = test system: patients with mCRPC; conditions: cited from earlier work; for Biochemical response PSA50 (PSA decline of more than 50%): 40 patients (38 evaluated)
[3] = test system: patients with mCRPC; conditions: 26 patients, cited from earlier work; for Biochemical response PSA50 (PSA decline of >50%): all progressed after ^177Lu-PSMA
[4] = test system: patient; conditions: De Medeiros 2019; 1 patient; 6-8 MBq per cycle; cited from earlier work
[5] = test system: patients with mCRPC; conditions: cited from earlier work
[6] = test system: kidneys; conditions: in vivo; cited from earlier work
[7] = test system: mCRPC patients; conditions: cited from earlier work
[8] = test system: chemotherapy naive patients; conditions: cited from earlier work
[9] = test system: cerebral metastases; conditions: in vivo; cited from earlier work
[10] = test system: patient; conditions: Sathekge 2019a; 1 patient; 8 MBq per cycle; cited from earlier work
[11] = test system: patient; conditions: cited from earlier work
[12] = test system: patients with mCRPC; conditions: cited from earlier work; remark: listed apart in the source
[13] = test system: patients; conditions: out of 60; cited from earlier work
[14] = test system: patients; conditions: van der Doelen 2020; 13 patients; 6-8 MBq per cycle; cited from earlier work
[15] = Kratochwil 2018, 40 patients, 100 kBq/kg per cycle
[16] = Feuerecker 2020, 4-8 MBq per cycle
[17] = Yadav 2020, 28 patients, 100 kBq/kg per cycle
[18] = group with previous ^177Lu-PSMA
[19] = Kratochwil 2017, 14 patients, 50-200 kBq/kg per cycle
[20] = Sathekge 2019b, 17 patients, 4-8 MBq per cycle
[21] = 3 cycles of mean 8.4 MBq, PSA 39.7 ng/ml at first cycle
[22] = Kratochwil 2016, 2 patients, 100 kBq/kg per cycle
[23] = both patients, 100 kBq/kg every 8 weeks

O=C(O)CC[C@H](NC(=O)N[C@@H](CCCCNC(=O)[C@H](Cc1ccc2ccccc2c1)NC(=O)[C@H]1CC[C@H](CNC(=O)CN2CCN(CC(=O)O)CCN(CC(=O)O)CCN(CC(=O)O)CC2)CC1)C(=O)O)C(=O)O [^225Ac-PSMA-617, metal not drawn]
mean dose for salivary glands higher than with ^177Lu-PSMA-617 [1]: approximately 70% | red marrow dose higher than with ^177Lu-PSMA-617 [1]: 85% | median duration of tumor control ([2]; 40 patients, 100 kBq/kg): 9 months | median overall survival ([2]; 40 patients, 100 kBq/kg): more than 12 months | progression free survival (median) ([2]; 40 patients, 100 kBq/kg): 7.0 months | Biochemical response PSA50 (PSA decline of more than 50%) ([2]; Kratochwil 2018, 100 kBq/kg per cycle): 63% | Biochemical response PSA50 (PSA decline of more than 50%) ([2]; Kratochwil 2018, 100 kBq/kg per cycle, listed as PSMA-617): 63% | Major toxicity [2, 15]: xerostomia | OS [2, 15]: na/>12 mo | patients demonstrating any PSA response ([2]; of 38 patients surviving at least 8 weeks): 87% | median overall survival ([3]; 95% CI 4.5-12.1 months): 7.7 months | complete response [3]: no complete response was seen | patients refusing any further treatment due to severe xerostomia [3]: 23% | patients with any PSA reduction [3]: 88% | xerostomia [3]: Mild irreversible xerostomia was seen in all patients | patients with treatment discontinued to prevent further deterioration of marrow toxicity ([3]; pre-existing marrow toxicity): 8% | Biochemical response PSA50 (PSA decline of >50%) [3, 16]: 65% | Biochemical response PSA50 (PSA decline of >50%) ([3]; Feuerecker 2020, 4-8 MBq per cycle, listed as PSMA-617): 65% | Major toxicity [3, 16]: xerostomia; also recorded: Hb↓, WBC↓, plt↓ | OS [3, 16]: 7.7 mo | PFS [3, 16]: 3.5 mo | Biochemical response PSA50 [4]: 100% | Major toxicity [4]: xerostomia; also recorded: xerophtalmia | Biochemical response PSA50 [5, 17]: 39% | Major toxicity [5, 17]: xerostomia; also recorded: fatigue | OS [5, 17]: 17 mo | PFS [5, 17]: 12 mo | PSA decline of >50% ([5]; ^177Lu PSMA naïve group): 53.8% | median survival ([5]; ^177Lu PSMA naïve group): 12 months | overall survival ([5]; ^177Lu PSMA naïve group): 17 months | progression rate ([5]; ^177Lu PSMA naïve group): 22.3% | PSA decline of >50% [5, 18]: 26.6% | median survival [5, 18]: 10 months | overall survival [5, 18]: 16 months | progression rate [5, 18]: 46% | kidney function [6]: deteriorated | route of excretion [6]: predominantly renal excretion | Biochemical response PSA50 [7, 19]: 44% | Major toxicity [7, 19]: xerostomia | OS [7, 19]: na/8.5 mo | duration of prostate-specific antigen decline ([7]; at 100 kBq/kg): less than 4 months | dose-limiting toxicity ([7]; if treatment activity exceeded 100 kBq/kg per cycle): severe xerostomia | patients with remarkable antitumor activity (objective radiologic response or tumor marker decline) ([7]; of 11 evaluable patients): 9 patients | toxicity ([7]; treatment activities of 50 kBq/kg): without toxicity | antitumor response ([7]; treatment activities of 50 kBq/kg, high-tumor-burden patients): insufficient antitumor response | most frequently noted side-effect ([8]; 17 patients, no discontinuation due to severe symptoms): Grade 1-2 xerostomia | Biochemical response PSA50 [8, 20]: 88% | Major toxicity [8, 20]: xerostomia | nephrotoxicity ([8]; a patient with only a single functional kidney, poor renal functioning from baseline): Grade 4 nephrotoxicity | patients with PSA decline >90% ([8]; at end of therapy, 17 patients): 82% | patients still alive ([8]; median follow up of 13 months post initiation of treatment): 82% | surviving patients in remission with undetectable serum PSA levels ([8]; median follow up of 13 months): 50% | surviving patients with stable disease ([8]; median follow up of 13 months): 50% | blood-brain barrier crossing [9]: crosses the blood-brain barrier | effect on cerebral metastases [9]: significant regression of cerebral metastases | Biochemical response PSA50 [10]: 100% | PSA level at second cycle [11, 21]: 7.7 ng/mL | PSA level at third cycle [11, 21]: 0.32 ng/mL | xerostomia ([11]; 3 cycles of mean 8.4 MBq): chronic xerostomia | creatinine ([11]; January 2019, increased from 1.3 in October 2015): 3.3 mg/dL | Salivary gland toxicity (xerostomia) ([12]; 2 patients): reported in both patients | Biochemical response PSA50 [12, 22]: 100% | Major toxicity [12, 22]: xerostomia | PSA [12, 23]: declined below the measurable level | response on ^68Ga-PSMA-11 PET/CT scan [12, 23]: complete response | patients with poor response despite sufficient tumor uptake in PSMA PET/CT [13]: 10 patients | Biochemical response PSA50 [14]: 69% | Major toxicity [14]: xerostomia | OS [14]: na/8.5 mo
